How the values were obtained:
[1] = test system: male rats; assay: Plasma metabolite profiling (GC-MS/LC-MS) for liver toxicity markers, 28-day gavage study, male rats; format: in vivo, rat; conditions: Table 3, male rats
Method: (§1) A group of each 5 male and female rats was dosed once daily with the indicated compounds (see tables below) at 10 and 100 mg/kg body weight per gavage over 28 days. Additional groups of each 5 male and female animals served as controls. Before starting the treatment period, animals, which were 62-64 days old when supplied, were acclimatized to the housing and environmental conditions for 7 days. All animals of the animal population were kept under the same constant temperature (20-24±3° C.) and the same constant humidity (30-70%). Each animal of the animal population was kept in a separate cage. The animals of the animal population are fed ad libitum. The food to be used was be essentially free of chemical or microbial contaminants. Drinking water was also offered ad libitum. Accordingly, the water was be free of chemical and microbial contaminants as laid down in the European Drinking Water Directive 98/83/EG. The illumination period was 12 hours light followed by 12 hours darkness (12 hours light, from 6:00 to 18:00, and 12 hours darkness, from 18:00 to 6:00).
(§2) In the morning of day 7, 14, and 28, blood was taken from the retroorbital venous plexus from fasted anaesthetized animals. From each animal, 1 ml of blood was collected with EDTA as anticoagulant. The samples were be centrifuged for generation of plasma. All plasma samples were covered with a N2 atmosphere and then stored at −80° C. until analysis.
(§3) For mass spectrometry-based metabolite profiling analyses plasma samples were extracted and a polar and a non-polar fraction was obtained. For GC-MS analysis, the non-polar fraction was treated with methanol under acidic conditions to yield the fatty acid methyl esters. Both fractions were further derivatised with O-methyl-hydroxyamine hydrochloride and pyridine to convert Oxo-groups to O-methyloximes and subsequently with a silylating agent before analysis. In LC-MS analysis, both fractions were reconstituted in appropriate solvent mixtures. HPLC was performed by gradient elution on reversed phase separation columns. For mass spectrometric detection metanomics proprietary technology was applied which allows target and high sensitivity MRM (Multiple Reaction Monitoring) profiling in parallel to a full screen analysis.
(§4) Following comprehensive analytical validation steps, the data for each analyte were normalized against data from pool samples. These samples were run in parallel through the whole process to account for process variability. The significance of treatment group values specific for sex, dose group and metabolite was determined by comparing means of the treated groups to the means of the respective untreated control groups using WELCH-test. Normalized treatment group values and their significance were fed into a database for further statistics and data mining processes.
(§5) The changes of the group of plasma metabolites being indicative for liver toxicity after treatment of the rats are shown in the following tables: […]

[2] = test system: female rats; assay: Plasma metabolite profiling (GC-MS/LC-MS) for liver toxicity markers, 28-day gavage study, female rats; format: in vivo, rat; conditions: for Glycerol-3-Phosphate, polar fraction, change of plasma metabolite / Glucose, change of plasma metabolite / Cholesterol, change of plasma metabolite: female rats
Method: as §1, §2, §3, §4, §5

[3] = Table 4, female rats, fh7 (day 7)
[4] = Table 4, female rats, fh14 (day 14)
[5] = Table 4, female rats, fh28 (day 28)

In the case of `CC(=O)Nc1ccc(O)cc1` [N-Acetyl-p-Aminophenol], the “4-Hydroxyphenylpyruvic acid, change of plasma metabolite” value ([1]; mh7 (day 7)) is reported as 3.04, the “18:1 Lyso PC, change of plasma metabolite” value ([1]; mh7 (day 7)) is reported as 1.02 and the “Glycerol-3-Phosphate, polar fraction, change of plasma metabolite” value ([1]; mh7 (day 7)) is reported as 1.41. The “alpha-Tocopherol, change of plasma metabolite” value ([1]; mh7 (day 7)) was 1.21, the “4-Hydroxyphenylpyruvic acid, change of plasma metabolite” value ([1]; mh14 (day 14)) was 4.89 and the “4-Hydroxysphinganine, change of plasma metabolite” value ([1]; mh14 (day 14)) was 1.61. For the same compound, the “18:1 Lyso PC, change of plasma metabolite” value ([1]; mh14 (day 14)) was 1.16, the “Glycerol-3-Phosphate, polar fraction, change of plasma metabolite” value ([1]; mh14 (day 14)) was 1.54 and the “Phosphatidylcholine No 01, change of plasma metabolite” value (“Phosphatidylcholine No 01, change” below) ([1]; mh14 (day 14)) was 1.21. For the same compound, the “Behenic acid (C22:0), change of plasma metabolite” value [2, 3] was 1.11, the “Coenzyme Q9, change of plasma metabolite” value [2, 3] was 2.21 and the “Eicosatrienoic acid No 01, change of plasma metabolite” value (shortened to “Eicosatrienoic acid No 01, change”) [2, 3] was 1.15. The “Glycerol, lipid fraction, change of plasma metabolite” value (“Glycerol, lipid fraction, change” for short) [2, 3] was 1.54, the “Glycerolphosphate, lipid fraction, change of plasma metabolite” value [2, 3] was 1.13 and the “Heptadecanoic acid (C17:0), change of plasma metabolite” value (shortened to “Heptadecanoic acid (C17:0), change”) [2, 3] was 1.31. The “Linoleic acid (C18:cis[9,12]2), change of plasma metabolite” value (from here on “Linoleic acid (C18:cis[9,12]2), change”) [2, 3] was 1.43, the “Nervonic acid (C24:1), change of plasma metabolite” value [2, 3] was 1.19 and the “Palmitic acid (C16:0), change of plasma metabolite” value (“Palmitic acid (C16:0), change” for short) [2, 3] was 1.16. The “Phosphatidylcholine No 01, change” value [2, 3] was 1.30, the “Sphingolipids (5-Methoxysphingosine), change of plasma metabolite” value [2, 3] was 1.31 and the “Sphingolipids (erythro-Sphingosine), change of plasma metabolite” value [2, 3] was 1.11. For the same compound, the “14-Methylhexadecanoic acid, change of plasma metabolite” value [2, 4] was 1.20, the “Behenic acid (C22:0), change of plasma metabolite” value [2, 4] was 1.39 and the “Coenzyme Q9, change of plasma metabolite” value [2, 4] was 1.39. For the same compound, the “DAG (C18:1, C18:2), change of plasma metabolite” value [2, 4] was 1.63, the “Eicosatrienoic acid No 01, change” value [2, 4] was 1.91 and the “Glycerol, lipid fraction, change” value [2, 4] was 1.56. For the same compound, the “Heptadecanoic acid (C17:0), change” value [2, 4] was 1.34, the “Linoleic acid (C18:cis[9,12]2), change” value [2, 4] was 1.82 and the “Nervonic acid (C24:1), change of plasma metabolite” value [2, 4] was 1.35. For the same compound, the “Palmitic acid (C16:0), change” value [2, 4] was 1.50, the “Phosphatidylcholine No 01, change” value [2, 4] was 1.34 and the “Sphingolipids (5-Methoxysphingosine), change of plasma metabolite” value [2, 4] was 1.41. The “Sphingolipids (erythro-Sphingosine), change of plasma metabolite” value [2, 4] was 1.29, the “TAG No 01, change of plasma metabolite” value [2, 4] was 2.93 and the “14-Methylhexadecanoic acid, change of plasma metabolite” value [2, 5] was 1.68. The “Coenzyme Q9, change of plasma metabolite” value [2, 5] was 1.19, the “DAG (C18:1, C18:2), change of plasma metabolite” value [2, 5] was 1.86 and the “Eicosanoic acid (C20:0), change of plasma metabolite” value [2, 5] was 1.73. For the same compound, the “Eicosatrienoic acid No 01, change” value [2, 5] was 2.08, the “Glycerol, lipid fraction, change” value [2, 5] was 2.04 and the “Glycerolphosphate, lipid fraction, change of plasma metabolite” value [2, 5] was 1.82. For the same compound, the “Heptadecanoic acid (C17:0), change” value [2, 5] was 1.64, the “Linoleic acid (C18:cis[9,12]2), change” value [2, 5] was 2.68 and the “Palmitic acid (C16:0), change” value [2, 5] was 2.03. For the same compound, the “TAG No 01, change of plasma metabolite” value [2, 5] was 3.85, the “Glycerol-3-Phosphate, polar fraction, change of plasma metabolite” value ([2]; Table 4, first listing (r8), fh7 (day 7)) was 1.68 and the “Glycerol-3-Phosphate, polar fraction, change of plasma metabolite” value ([2]; Table 4, first listing (r8), fh14 (day 14)) was 1.18. The “Glucose, change of plasma metabolite” value ([2]; Table 4, first listing (r10), fh7 (day 7)) was 1.25, the “Glucose, change of plasma metabolite” value ([2]; Table 4, first listing (r10), fh28 (day 28)) was 1.17 and the “Cholesterol, change of plasma metabolite” value ([2]; Table 4, first listing (r14), fh28 (day 28)) was 1.41. The “Cholesterol, change of plasma metabolite” value ([2]; Table 4, second listing (r26), fh7 (day 7)) was 1.21, the “Cholesterol, change of plasma metabolite” value ([2]; Table 4, second listing (r26), fh14 (day 14)) was 1.42 and the “Cholesterol, change of plasma metabolite” value ([2]; Table 4, second listing (r26), fh28 (day 28)) was 1.74. The “Glucose, change of plasma metabolite” value ([2]; Table 4, second listing (r27), fh28 (day 28)) was 1.04, the “Glycerol-3-Phosphate, polar fraction, change of plasma metabolite” value ([2]; Table 4, second listing (r28), fh7 (day 7)) was 1.93 and the “Glycerol-3-Phosphate, polar fraction, change of plasma metabolite” value ([2]; Table 4, second listing (r28), fh14 (day 14)) was 1.35. For the same compound, the “Glycerol-3-Phosphate, polar fraction, change of plasma metabolite” value ([2]; Table 4, second listing (r28), fh28 (day 28)) was 1.20.

— patent publication US8597875B2, “Method for diagnosing liver toxicity with sex specific biomarkers” (BASF SE, priority 2008, dated 2013)
